Assay results reported in ChEMBL document CHEMBL3352449, “Synthesis and biological evaluation of 1α,25-dihydroxyvitamin D3 analogues with aromatic side chains attached at C-17” (Eur J Med Chem, 2014).
Activity calls are given as the source filed them. No cut-off for these calls is given here.

Legend:
HL-60 = test: Induction of cell differentiation in human HL60 cells assessed as maturing morphological changes at 30 to 1000 nM after 48 hrs by Wright's-Giemsa staining-based forty microscopic view assay; assay type: functional
MCF7 = test: Antiproliferative activity against human MCF7 cells assessed as inhibition of proliferation after 72 hrs by MTT assay; assay type: functional, cell-based; details: MCF7, 72 h
[1] = target: T1, Vitamin D3 receptor (Bos taurus) (UniProt Q28037); test: Displacement of [3H]-1alpha,25-dihydroxyvitamin D3 from bovine thymus VDR measured after overnight incubation relative to 1alpha,25-dihydroxyvitamin D3
T1 sequence (whole entry): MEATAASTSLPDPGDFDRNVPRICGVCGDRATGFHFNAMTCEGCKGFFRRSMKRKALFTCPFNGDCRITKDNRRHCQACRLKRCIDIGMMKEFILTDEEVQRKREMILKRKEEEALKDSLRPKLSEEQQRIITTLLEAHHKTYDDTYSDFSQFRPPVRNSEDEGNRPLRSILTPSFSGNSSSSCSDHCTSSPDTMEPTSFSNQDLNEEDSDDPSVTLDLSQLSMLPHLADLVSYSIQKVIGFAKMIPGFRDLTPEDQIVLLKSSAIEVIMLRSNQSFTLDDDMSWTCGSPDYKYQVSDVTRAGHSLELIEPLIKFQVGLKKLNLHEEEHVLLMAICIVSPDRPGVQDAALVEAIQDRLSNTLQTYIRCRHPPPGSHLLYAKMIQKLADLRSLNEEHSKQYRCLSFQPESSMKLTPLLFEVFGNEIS

IC50 (MCF7) [µM] | Ratio [1] | SMILES | Activity (HL-60)
7.56 | 0.015 | C=C1/C(=C\C=C2/CCC[C@]3(C)C(c4cccc(CCCC(C)(C)O)c4)=CC[C@@H]23)C[C@@H](O)C[C@@H]1O | Active
 | 0.01 | C=C1CC[C@H](O)C/C1=C/C=C1\CCC[C@]2(C)[C@@H]([C@H](C)CCCC(C)(C)O)CC[C@@H]12 | 
 |  | C=C1/C(=C\C=C2/CCC[C@]3(C)[C@@H]([C@H](C)CCCC(C)(C)O)CC[C@@H]23)C[C@@H](O)C[C@@H]1O | Active
7.08 | 0.01 | C=C1/C(=C\C=C2/CCC[C@]3(C)C(c4ccccc4CCCC(C)(C)O)=CC[C@@H]23)C[C@@H](O)C[C@@H]1O | Active
